In patent US8815834B2, “Use of dendrimers to stimulate cell growth” (Centre National de la Recherche Scientifique, priority 2004, dated 2014):

Test system: human NK cells
Test: Culture of PBMC with dendrimer and IL2: amplification and phenotype of NK cells
Conditions: in particular at a concentration of 20 μM; FIG. 4B
Experimental: Peripheral blood mononuclear cells (PBMC) obtained from a healthy adult human donor by centrifugation over a density gradient (Ficoll-Hypaque, Amersham Pharmacia Biotech, Upsalla, SWEDEN) are cultured in sterile cell culture flasks at a concentration of 1.5 million cells per ml of culture medium of the RPMI 1640 type, 25 mM Hepes/Ultraglutamine 1 (Cambrex Bio Science, Verviers, BELGIUM) supplemented with: • i) 1 mM sodium pyruvate (Invitrogen Corporation, Paisley, UNITED KINGDOM) • ii) 100 μg/ml of streptomycin and 100 U/ml of penicillin (Cambrex Bio Science, Verviers, BELGIUM); • iii) 10% by volume of foetal calf serum (Invitrogen Corporation, Paisley, UNITED KINGDOM) decomplemented for 30 minutes at 56° C. (FCS); • iv) 20 μM of GC1 dendrimer solubilized at a concentration of 2 mM in sterile non-pyrogenic PBS; • v) 200 U/ml of human recombinant IL2 (Sanofi-Synthelabo, Paris, FRANCE) is added to the culture medium thus produced. […]
The PBMCs obtained from a healthy adult human donor are cultured for 15 days with GC1 then counted by total counting of the living cells (Ntot). […]
The NK cells obtained starting with PBMCs from healthy donors cultured under the conditions described previously are counted, at the start of the experiment then at the end of 3.5 weeks of culture. […]

## O=P(O)(O)CN(CCc1ccc(O)cc1)CP(=O)(O)O [phenol-azabisphosphonic monomer derived from tyramine]
  Immunostimulant properties on the in vitro amplification of human NK cells: inactive
